Test results taken from US20070298105A1, “METHODS OF TREATING CONDITIONS BY SUSTAINED RELEASE ADMINISTRATION OF BENZIMIDAZOLE DERIVATIVES” (priority 2006, published 2007).
Where two headings read alike, the source gives them in different places.

Legend:
[1] = tested on: intragastric pH; test: Colonic intubation study: intragastric pH profile (percent of time with pH >4); assay type: in vivo, human
Procedure: A single-dose, open-label, partially randomized, five-treatment, five-period, crossover pilot study was performed in healthy males to determine relative pharmacokinetics of rabeprazole, and comparators when dosed either orally or colonically. The study was a single dose study with blood sampling up to 24 hours following initiation.
Treatments A and B were rabeprazole sodium solution dosed to provide 30 and 60 mg, respectively, over 20 hours in the transverse colon of the subjects. Colonic dosing occurred using a nasoenteral tube. Treatment C was a single 20 mg dose of rabeprazole sodium oral enteric coated tablets dosed orally. Treatment D was placebo (200 mL of water) dosed orally.
The intragastric pH profile was analyzed based on the percentage of time that the intragastric pH was above 4, which was calculated for the full 24 hours. In addition, the mean pH value over 5 time intervals of 6 hours each during the 30-hr sampling time was also estimated.

[2] = Colonic intubation study: plasma pharmacokinetics of rabeprazole and esomeprazole; assay type: in vivo, human; conditions: for AUC(0-inf): read-out: AUCinf (mean)
Procedure: A single-dose, open-label, partially randomized, five-treatment, five-period, crossover pilot study was performed in healthy males to determine relative pharmacokinetics of rabeprazole, and comparators when dosed either orally or colonically. The study was a single dose study with blood sampling up to 24 hours following initiation. […] Colonic dosing occurred using a nasoenteral tube. Treatment C was a single 20 mg dose of rabeprazole sodium oral enteric coated tablets dosed orally. Treatment D was placebo (200 mL of water) dosed orally. […] For subjects whose apparent elimination rate constant [k] could not be properly determined, the AUC to infinity [AUCinf]) was calculated based on the median apparent elimination constant [k] of the subjects with available t1/2 values in the same treatment period. […] The intragastric pH profile were determined.

[3] = male, human, plasma, other: colonic (nasoenteral tube into the transverse colon), 30 mg, TRT A: rabeprazole 30 mg solution in the colon over 20 hours, N = 19
[4] = male, human, plasma, other: colonic (nasoenteral tube into the transverse colon), 30 mg, TRT A: rabeprazole 30 mg solution in the colon over 20 hours, subset N = 14
[5] = male, human, plasma, other: colonic (nasoenteral tube into the transverse colon), 60 mg, TRT B: rabeprazole 60 mg solution in the colon over 20 hours, N = 19
[6] = male, human, plasma, other: colonic (nasoenteral tube into the transverse colon), 60 mg, TRT B: rabeprazole 60 mg solution in the colon over 20 hours, subset N = 14
[7] = male, human, plasma, po, 20 mg, TRT C: rabeprazole 20 mg oral tablet, N = 19
[8] = male, human, plasma, po, 20 mg, TRT C: rabeprazole 20 mg oral tablet, subset N = 14

- Tmax ([2]; male, human, plasma, other: colonic (nasoenteral tube into the transverse colon), 30 mg, 30 mg rabeprazole colonic solution treatment, after start of treatment (colon infusion ended at 20 hr), read-out: median Tmax): ~18 h
- AUC(0-t) [2, 3]: 287 ng·h/mL
- AUC(0-inf) [2, 3]: 332 ng·h/mL
- Tmax ([2]; male, human, plasma, other: colonic (nasoenteral tube into the transverse colon), 30 mg, TRT A: rabeprazole 30 mg solution in the colon over 20 hours, N = 19, read-out: Tmax (median)): 18 h
- half-life ([2]; male, human, plasma, other: colonic (nasoenteral tube into the transverse colon), 30 mg, TRT A: rabeprazole 30 mg solution in the colon over 20 hours, N = 19, read-out: t1/2 (median) (converted)): 2 h
- Cmax ([2]; male, human, plasma, other: colonic (nasoenteral tube into the transverse colon), 30 mg, TRT A: rabeprazole 30 mg solution in the colon over 20 hours, single dose, healthy males, N = 19): 18 ng/mL
- AUC(0-t) [2, 4]: 290 ng·h/mL
- AUC(0-inf) [2, 4]: 343 ng·h/mL
- half-life ([2]; male, human, plasma, other: colonic (nasoenteral tube into the transverse colon), 30 mg, TRT A: rabeprazole 30 mg solution in the colon over 20 hours, subset N = 14, read-out: t1/2 (median) (converted)): 2 h
- Tmax ([2]; male, human, plasma, other: colonic (nasoenteral tube into the transverse colon), 60 mg, 60 mg rabeprazole colonic solution treatment, after start of treatment (colon infusion ended at 20 hr), read-out: median Tmax): ~18 h
- AUC(0-t) [2, 5]: 549 ng·h/mL
- AUC(0-inf) [2, 5]: 599 ng·h/mL
- Tmax ([2]; male, human, plasma, other: colonic (nasoenteral tube into the transverse colon), 60 mg, TRT B: rabeprazole 60 mg solution in the colon over 20 hours, N = 19, read-out: Tmax (median)): 18 h
- half-life ([2]; male, human, plasma, other: colonic (nasoenteral tube into the transverse colon), 60 mg, TRT B: rabeprazole 60 mg solution in the colon over 20 hours, N = 19, read-out: t1/2 (median) (converted)): 1.9 h
- Cmax ([2]; male, human, plasma, other: colonic (nasoenteral tube into the transverse colon), 60 mg, TRT B: rabeprazole 60 mg solution in the colon over 20 hours, single dose, healthy males, N = 19): 38.4 ng/mL
- AUC(0-t) [2, 6]: 586 ng·h/mL
- AUC(0-inf) [2, 6]: 646 ng·h/mL
- half-life ([2]; male, human, plasma, other: colonic (nasoenteral tube into the transverse colon), 60 mg, TRT B: rabeprazole 60 mg solution in the colon over 20 hours, subset N = 14, read-out: t1/2 (median) (converted)): 2.1 h
- half-life ([2]; male, human, plasma, other: colonic (nasoenteral tube into the transverse colon), rabeprazole following colonic treatment, read-out: median plasma half-life (converted)): ~2 h
- bioavailability ([2]; male, human, plasma, other: colonic (nasoenteral tube into the transverse colon), colonic treatment compared to oral tablets, dose-normalized basis, read-out: percent relative bioavailability (colonic bioavailability)): ~40%
- Cmax ([2]; male, human, plasma, other: colonic (transverse colon, via nasoenteral tube), 30 mg, TRT A: rabeprazole 30 mg solution in the colon over 20 hours, subset N = 14): 18.7 ng/mL
- Tmax ([2]; male, human, plasma, other: colonic (transverse colon, via nasoenteral tube), 30 mg, TRT A: rabeprazole 30 mg solution in the colon over 20 hours, subset N = 14, read-out: Tmax (median)): 18 h
- Cmax ([2]; male, human, plasma, other: colonic (transverse colon, via nasoenteral tube), 60 mg, TRT B: rabeprazole 60 mg solution in the colon over 20 hours, subset N = 14): 43.7 ng/mL
- Tmax ([2]; male, human, plasma, other: colonic (transverse colon, via nasoenteral tube), 60 mg, TRT B: rabeprazole 60 mg solution in the colon over 20 hours, subset N = 14, read-out: Tmax (median)): 18 h
- Tmax ([2]; male, human, plasma, po, 20 mg, 20 mg rabeprazole oral tablet treatment, read-out: median Tmax): 4.5 to 6 h
- AUC(0-t) [2, 7]: 534 ng·h/mL
- AUC(0-inf) [2, 7]: 603 ng·h/mL
- Tmax ([2]; male, human, plasma, po, 20 mg, TRT C: rabeprazole 20 mg oral tablet, N = 19, read-out: Tmax (median)): 4.5 h
- half-life ([2]; male, human, plasma, po, 20 mg, TRT C: rabeprazole 20 mg oral tablet, N = 19, read-out: t1/2 (median) (converted)): 0.96 h
- Cmax ([2]; male, human, plasma, po, 20 mg, TRT C: rabeprazole 20 mg oral tablet, single dose, healthy males, N = 19): 239 ng/mL
- AUC(0-t) [2, 8]: 619 ng·h/mL
- Cmax [2, 8]: 267 ng/mL
- AUC(0-inf) [2, 8]: 697 ng·h/mL
- Tmax ([2]; male, human, plasma, po, 20 mg, TRT C: rabeprazole 20 mg oral tablet, subset N = 14, read-out: Tmax (median)): 6 h
- half-life ([2]; male, human, plasma, po, 20 mg, TRT C: rabeprazole 20 mg oral tablet, subset N = 14, read-out: t1/2 (median) (converted)): 1 h
- half-life ([2]; male, human, plasma, po, 20 mg, rabeprazole following oral administration, read-out: median plasma half-life (converted)): ~1 h
- AUC compared with 20 mg oral tablet ([2]; rabeprazole 60 mg colonic treatment): comparable AUC
Compound: COCCCOc1ccnc(C[S+]([O-])c2nc3ccccc3[nH]2)c1C (centres unmarked) [Rabeprazole, 2-[[[4-(3-methoxypropoxy)-3-methyl-2-pyridinyl]-methyl]sulfinyl]-1H-benzimidazole]
- Mean percent of time with pH >4 ([1]; 0-6 hr (10 am-4 pm), TRT A: rabeprazole 30 mg solution in the colon, N = 19): 30.6%
- Mean percent of time with pH >4 ([1]; 0-6 hr (10 am-4 pm), TRT B: rabeprazole 60 mg solution in the colon, N = 19): 32.6%
- Mean percent of time with pH >4 ([1]; 0-6 hr (10 am-4 pm), TRT B: rabeprazole 60 mg solution in the colon, subset N = 14): 34.6%
- Mean percent of time with pH >4 ([1]; 0-6 hr (10 am-4 pm), TRT C: rabeprazole 20 mg oral tablet, N = 19): 31.1%
- Mean percent of time with pH >4 ([1]; 0-6 hr (10 am-4 pm), TRT C: rabeprazole 20 mg oral tablet, subset N = 14): 29.1%
- Mean percent of time with pH >4 ([1]; 6-12 hr (4 pm-10 pm), TRT A: rabeprazole 30 mg solution in the colon, N = 19): 37.9%
- Mean percent of time with pH >4 ([1]; 6-12 hr (4 pm-10 pm), TRT B: rabeprazole 60 mg solution in the colon, N = 19): 50.5%
- Mean percent of time with pH >4 ([1]; 6-12 hr (4 pm-10 pm), TRT B: rabeprazole 60 mg solution in the colon, subset N = 14): 55.8%
- Mean percent of time with pH >4 ([1]; 6-12 hr (4 pm-10 pm), TRT C: rabeprazole 20 mg oral tablet, N = 19): 60.9%
- Mean percent of time with pH >4 ([1]; 6-12 hr (4 pm-10 pm), TRT C: rabeprazole 20 mg oral tablet, subset N = 14): 63.6%
- Mean percent of time with pH >4 ([1]; 12-18 hr (10 pm-4 am), TRT A: rabeprazole 30 mg solution in the colon, N = 19): 23.2%
- Mean percent of time with pH >4 ([1]; 12-18 hr (10 pm-4 am), TRT B: rabeprazole 60 mg solution in the colon, N = 19): 34.3%
- Mean percent of time with pH >4 ([1]; 12-18 hr (10 pm-4 am), TRT B: rabeprazole 60 mg solution in the colon, subset N = 14): 39.9%
- Mean percent of time with pH >4 ([1]; 12-18 hr (10 pm-4 am), TRT C: rabeprazole 20 mg oral tablet, N = 19): 25.9%
- Mean percent of time with pH >4 ([1]; 12-18 hr (10 pm-4 am), TRT C: rabeprazole 20 mg oral tablet, subset N = 14): 26.7%
- Mean percent of time with pH >4 ([1]; 18-24 hr (4 am-10 am), TRT A: rabeprazole 30 mg solution in the colon, N = 19): 47.2%
- Mean percent of time with pH >4 ([1]; 18-24 hr (4 am-10 am), TRT B: rabeprazole 60 mg solution in the colon, N = 19): 64.0%
- Mean percent of time with pH >4 ([1]; 18-24 hr (4 am-10 am), TRT B: rabeprazole 60 mg solution in the colon, subset N = 14): 68.9%
- Mean percent of time with pH >4 ([1]; 18-24 hr (4 am-10 am), TRT C: rabeprazole 20 mg oral tablet, N = 19): 37.8%
- Mean percent of time with pH >4 ([1]; 18-24 hr (4 am-10 am), TRT C: rabeprazole 20 mg oral tablet, subset N = 14): 35.4%
- Mean percent of time with pH >4 ([1]; 24-30 hr (10 am-4 pm), TRT A: rabeprazole 30 mg solution in the colon, N = 19): 45.4%
- Mean percent of time with pH >4 ([1]; 24-30 hr (10 am-4 pm), TRT B: rabeprazole 60 mg solution in the colon, N = 19): 64.4%
- Mean percent of time with pH >4 ([1]; 24-30 hr (10 am-4 pm), TRT B: rabeprazole 60 mg solution in the colon, subset N = 14): 72.0%
- Mean percent of time with pH >4 ([1]; 24-30 hr (10 am-4 pm), TRT C: rabeprazole 20 mg oral tablet, N = 19): 43.6%
- Mean percent of time with pH >4 ([1]; 24-30 hr (10 am-4 pm), TRT C: rabeprazole 20 mg oral tablet, subset N = 14): 45.4%
- Mean percent of time with pH >4 ([1]; 24-hr average, TRT A: rabeprazole 30 mg solution in the colon, N = 19): 34.7%
- Mean percent of time with pH >4 ([1]; 24-hr average, TRT A: rabeprazole 30 mg solution in the colon, N = 19, listed as rabeprazole): 35%
- Mean percent of time with pH >4 ([1]; 24-hr average, TRT B: rabeprazole 60 mg solution in the colon, N = 19): 44.9%
- Mean percent of time with pH >4 ([1]; 24-hr average, TRT B: rabeprazole 60 mg solution in the colon, N = 19, listed as rabeprazole): 45%
- Mean percent of time with pH >4 ([1]; 24-hr average, TRT B: rabeprazole 60 mg solution in the colon, subset N = 14): 49.2%
- Mean percent of time with pH >4 ([1]; 24-hr average, TRT C: rabeprazole 20 mg oral tablet, N = 19): 38.9%
- Mean percent of time with pH >4 ([1]; 24-hr average, TRT C: rabeprazole 20 mg oral tablet, N = 19, listed as rabeprazole): 39%
- Mean percent of time with pH >4 ([1]; 24-hr average, TRT C: rabeprazole 20 mg oral tablet, subset N = 14): 38.7%
- dose dependence of percentage of time with pH >4 ([1]; 30 and 60 mg colonic rabeprazole treatments, 6-12 h period and beyond): dose-dependent increase
- effect on percentage of time with pH >4 compared to placebo ([1]; first 6 hours of treatment, rabeprazole Treatments A, B and C): not significantly different from placebo
- gastric pH control compared with rabeprazole 20 mg tablet ([1]; rabeprazole 60 mg colonic treatment, especially during the night-time period (12-30 hr)): better gastric pH control
- dose proportionality of mean Cmax and AUC ([2]; 30 mg and 60 mg colonic treatments): increased approximately dose proportionally
